Assay results: paper PMC4979471 (Cell Death Discovery, 2015)
Like-named read-outs stand apart in the source and are kept apart here.

Key:
Test in all cases: Kinase selectivity, P33-radiolabeled assay
Type in all cases: biochemical
Conditions in all cases: 10 μM ATP
[1] = target: T1, PDK1/PDPK1 (Homo sapiens, UniProt O15530)
T1 construct: purchased Reaction Biology Corp
T1 sequence (O15530 1-556): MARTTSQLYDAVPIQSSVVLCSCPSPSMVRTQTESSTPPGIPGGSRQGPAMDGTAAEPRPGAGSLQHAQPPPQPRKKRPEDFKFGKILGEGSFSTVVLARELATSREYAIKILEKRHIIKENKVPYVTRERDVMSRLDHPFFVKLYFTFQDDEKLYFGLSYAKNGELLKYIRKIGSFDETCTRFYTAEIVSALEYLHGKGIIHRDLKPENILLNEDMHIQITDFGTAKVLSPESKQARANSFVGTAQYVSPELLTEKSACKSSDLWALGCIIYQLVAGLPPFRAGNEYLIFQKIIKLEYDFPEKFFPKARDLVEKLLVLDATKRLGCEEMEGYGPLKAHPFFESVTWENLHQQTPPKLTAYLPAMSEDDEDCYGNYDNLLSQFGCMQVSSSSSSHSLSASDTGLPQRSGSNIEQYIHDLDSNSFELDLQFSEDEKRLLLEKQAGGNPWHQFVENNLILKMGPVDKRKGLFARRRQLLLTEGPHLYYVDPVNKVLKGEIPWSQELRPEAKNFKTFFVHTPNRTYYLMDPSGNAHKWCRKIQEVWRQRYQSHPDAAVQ
Summary of the method: (§1)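 Percent residual kinase activity versus DMSO is reported. Conditions: compound at 10 μM, ATP at 10 μM, n = 2.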

[2] = target: T2, PKCb2 (Homo sapiens, UniProt P05771)
T2 construct: purchased Reaction Biology Corp
T2 sequence (P05771 1-673 isoform P05771-2): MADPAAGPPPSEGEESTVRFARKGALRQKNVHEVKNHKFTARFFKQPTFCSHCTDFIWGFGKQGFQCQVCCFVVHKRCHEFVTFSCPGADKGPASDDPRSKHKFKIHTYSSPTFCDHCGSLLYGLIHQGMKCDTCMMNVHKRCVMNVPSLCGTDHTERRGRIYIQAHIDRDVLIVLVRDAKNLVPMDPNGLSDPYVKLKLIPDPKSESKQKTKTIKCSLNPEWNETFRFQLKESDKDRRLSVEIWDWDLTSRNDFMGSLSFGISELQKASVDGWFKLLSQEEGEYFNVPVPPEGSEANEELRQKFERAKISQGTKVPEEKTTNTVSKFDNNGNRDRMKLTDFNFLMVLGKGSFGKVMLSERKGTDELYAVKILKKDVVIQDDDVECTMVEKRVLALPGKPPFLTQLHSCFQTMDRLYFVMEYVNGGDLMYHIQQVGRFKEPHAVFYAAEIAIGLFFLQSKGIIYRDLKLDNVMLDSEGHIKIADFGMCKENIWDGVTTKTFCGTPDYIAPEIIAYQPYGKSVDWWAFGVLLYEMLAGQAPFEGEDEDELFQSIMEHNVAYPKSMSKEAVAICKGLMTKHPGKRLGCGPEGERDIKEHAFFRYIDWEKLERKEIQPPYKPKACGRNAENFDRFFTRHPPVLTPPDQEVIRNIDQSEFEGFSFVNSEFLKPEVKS
Summary of the method: as §1

[3] = target: T3, MEK1 (Homo sapiens, UniProt Q02750)
T3 construct: purchased Reaction Biology Corp
T3 sequence (Q02750 whole entry): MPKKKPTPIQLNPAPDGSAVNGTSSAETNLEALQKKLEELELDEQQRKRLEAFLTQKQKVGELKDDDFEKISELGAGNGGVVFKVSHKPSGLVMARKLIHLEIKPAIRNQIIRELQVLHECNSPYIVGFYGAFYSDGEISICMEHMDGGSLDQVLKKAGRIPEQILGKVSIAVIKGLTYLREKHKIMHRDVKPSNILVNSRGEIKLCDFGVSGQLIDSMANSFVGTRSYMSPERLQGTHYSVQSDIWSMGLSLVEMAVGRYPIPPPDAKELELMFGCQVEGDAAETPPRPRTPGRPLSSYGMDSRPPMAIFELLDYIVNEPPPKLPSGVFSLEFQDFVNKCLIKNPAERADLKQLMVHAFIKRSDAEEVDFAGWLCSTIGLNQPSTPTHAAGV
Summary of the method: as §1

[4] = target: T4, c-MET (Homo sapiens, UniProt P08581)
T4 construct: purchased Reaction Biology Corp
T4 sequence (P08581 25-1390): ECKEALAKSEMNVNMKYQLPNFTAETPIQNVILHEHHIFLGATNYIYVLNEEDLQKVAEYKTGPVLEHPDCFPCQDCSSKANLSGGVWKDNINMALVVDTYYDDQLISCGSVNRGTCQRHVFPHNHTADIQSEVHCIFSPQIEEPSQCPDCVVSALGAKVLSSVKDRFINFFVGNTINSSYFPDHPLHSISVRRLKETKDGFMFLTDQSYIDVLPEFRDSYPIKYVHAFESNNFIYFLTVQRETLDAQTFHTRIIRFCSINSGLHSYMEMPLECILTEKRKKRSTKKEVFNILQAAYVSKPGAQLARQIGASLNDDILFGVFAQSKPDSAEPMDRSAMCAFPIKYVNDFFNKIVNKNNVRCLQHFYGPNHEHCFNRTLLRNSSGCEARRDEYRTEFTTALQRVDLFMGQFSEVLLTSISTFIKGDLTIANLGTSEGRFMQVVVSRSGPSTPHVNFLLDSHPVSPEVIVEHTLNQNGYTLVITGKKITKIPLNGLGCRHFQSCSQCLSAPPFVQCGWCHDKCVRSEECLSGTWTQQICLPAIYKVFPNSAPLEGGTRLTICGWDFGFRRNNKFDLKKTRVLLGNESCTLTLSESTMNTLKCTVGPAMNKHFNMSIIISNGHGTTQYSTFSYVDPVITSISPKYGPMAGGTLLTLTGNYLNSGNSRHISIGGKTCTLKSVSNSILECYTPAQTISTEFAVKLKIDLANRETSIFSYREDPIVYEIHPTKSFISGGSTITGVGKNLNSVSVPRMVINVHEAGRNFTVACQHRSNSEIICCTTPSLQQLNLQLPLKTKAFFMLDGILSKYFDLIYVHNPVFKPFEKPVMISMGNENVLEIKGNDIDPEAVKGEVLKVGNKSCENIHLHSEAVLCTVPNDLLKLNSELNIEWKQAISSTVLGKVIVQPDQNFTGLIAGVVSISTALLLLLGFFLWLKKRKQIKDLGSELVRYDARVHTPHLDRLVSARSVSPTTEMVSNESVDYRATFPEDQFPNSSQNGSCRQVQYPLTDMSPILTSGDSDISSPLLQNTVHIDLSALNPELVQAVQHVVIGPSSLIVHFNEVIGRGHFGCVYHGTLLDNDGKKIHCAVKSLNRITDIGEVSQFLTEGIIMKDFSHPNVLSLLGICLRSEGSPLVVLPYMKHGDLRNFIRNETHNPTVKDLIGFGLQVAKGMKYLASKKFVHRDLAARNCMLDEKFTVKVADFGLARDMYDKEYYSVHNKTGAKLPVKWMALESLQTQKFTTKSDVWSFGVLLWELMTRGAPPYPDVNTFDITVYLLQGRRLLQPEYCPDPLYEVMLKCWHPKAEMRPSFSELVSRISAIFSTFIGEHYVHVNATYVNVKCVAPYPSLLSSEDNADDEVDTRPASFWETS
Summary of the method: as §1

[5] = target: T5, PDGFRa (Homo sapiens, UniProt P16234)
T5 construct: purchased Reaction Biology Corp
T5 sequence (P16234 24-1089): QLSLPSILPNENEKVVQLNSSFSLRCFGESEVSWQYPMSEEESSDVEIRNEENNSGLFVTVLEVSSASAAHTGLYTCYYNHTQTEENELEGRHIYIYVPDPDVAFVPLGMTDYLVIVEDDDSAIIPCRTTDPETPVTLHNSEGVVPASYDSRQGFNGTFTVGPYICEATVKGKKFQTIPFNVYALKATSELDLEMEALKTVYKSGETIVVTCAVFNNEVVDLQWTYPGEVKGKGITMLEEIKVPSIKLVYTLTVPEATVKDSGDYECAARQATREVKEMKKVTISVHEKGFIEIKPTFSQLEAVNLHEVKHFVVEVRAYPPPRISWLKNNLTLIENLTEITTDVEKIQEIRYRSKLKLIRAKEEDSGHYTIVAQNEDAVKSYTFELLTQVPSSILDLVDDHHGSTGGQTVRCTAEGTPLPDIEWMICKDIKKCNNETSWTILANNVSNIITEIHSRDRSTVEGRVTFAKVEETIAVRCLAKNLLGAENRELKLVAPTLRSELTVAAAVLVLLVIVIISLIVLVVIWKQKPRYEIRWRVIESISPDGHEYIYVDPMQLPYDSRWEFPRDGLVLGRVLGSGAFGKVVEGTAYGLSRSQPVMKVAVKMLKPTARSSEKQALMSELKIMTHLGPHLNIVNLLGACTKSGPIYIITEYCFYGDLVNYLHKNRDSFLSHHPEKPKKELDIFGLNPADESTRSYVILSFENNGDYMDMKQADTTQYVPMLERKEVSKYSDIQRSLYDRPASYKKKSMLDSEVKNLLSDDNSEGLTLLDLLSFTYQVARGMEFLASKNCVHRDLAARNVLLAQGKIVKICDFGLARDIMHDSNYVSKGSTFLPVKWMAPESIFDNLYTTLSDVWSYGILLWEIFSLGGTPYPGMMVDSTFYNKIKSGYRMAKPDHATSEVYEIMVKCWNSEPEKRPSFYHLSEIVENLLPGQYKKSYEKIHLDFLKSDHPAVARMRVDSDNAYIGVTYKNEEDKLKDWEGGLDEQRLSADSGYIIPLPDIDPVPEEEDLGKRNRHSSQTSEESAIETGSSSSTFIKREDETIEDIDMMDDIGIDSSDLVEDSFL
Summary of the method: as §1

[6] = target: T6, SGK1 (Homo sapiens, UniProt O00141)
T6 construct: purchased Reaction Biology Corp
T6 sequence (O00141 1-431): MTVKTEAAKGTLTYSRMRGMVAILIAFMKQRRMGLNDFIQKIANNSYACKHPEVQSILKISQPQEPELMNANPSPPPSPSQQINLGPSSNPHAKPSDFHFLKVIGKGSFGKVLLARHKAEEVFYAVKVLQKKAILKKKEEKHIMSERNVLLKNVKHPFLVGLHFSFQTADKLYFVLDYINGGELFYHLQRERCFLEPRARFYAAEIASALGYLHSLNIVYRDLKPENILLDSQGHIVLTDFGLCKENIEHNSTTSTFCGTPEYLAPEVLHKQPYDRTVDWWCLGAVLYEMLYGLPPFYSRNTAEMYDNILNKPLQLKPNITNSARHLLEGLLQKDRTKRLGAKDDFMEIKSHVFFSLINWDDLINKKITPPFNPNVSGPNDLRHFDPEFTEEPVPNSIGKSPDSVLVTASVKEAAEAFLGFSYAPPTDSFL
Summary of the method: as §1

[7] = target: T7, ALK1/ACVRL1 (Homo sapiens, UniProt P37023)
T7 construct: purchased Reaction Biology Corp
T7 sequence (P37023 22-503): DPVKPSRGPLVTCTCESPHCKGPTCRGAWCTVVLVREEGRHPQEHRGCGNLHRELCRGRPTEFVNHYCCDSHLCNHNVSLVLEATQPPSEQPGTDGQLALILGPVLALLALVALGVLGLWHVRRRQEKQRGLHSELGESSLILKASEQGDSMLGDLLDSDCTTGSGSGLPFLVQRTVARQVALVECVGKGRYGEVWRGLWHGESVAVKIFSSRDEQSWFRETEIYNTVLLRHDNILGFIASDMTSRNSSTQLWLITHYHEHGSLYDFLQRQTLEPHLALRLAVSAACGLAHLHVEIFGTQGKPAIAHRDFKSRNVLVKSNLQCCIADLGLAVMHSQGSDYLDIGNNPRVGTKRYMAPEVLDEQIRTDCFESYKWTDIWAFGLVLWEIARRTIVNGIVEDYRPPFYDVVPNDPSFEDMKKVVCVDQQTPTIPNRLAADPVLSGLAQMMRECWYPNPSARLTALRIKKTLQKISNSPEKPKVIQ
Summary of the method: as §1

[8] = target: T8, TAOK3/JIK (Homo sapiens, UniProt Q9H2K8)
T8 construct: purchased Reaction Biology Corp
T8 sequence (Q9H2K8 1-898): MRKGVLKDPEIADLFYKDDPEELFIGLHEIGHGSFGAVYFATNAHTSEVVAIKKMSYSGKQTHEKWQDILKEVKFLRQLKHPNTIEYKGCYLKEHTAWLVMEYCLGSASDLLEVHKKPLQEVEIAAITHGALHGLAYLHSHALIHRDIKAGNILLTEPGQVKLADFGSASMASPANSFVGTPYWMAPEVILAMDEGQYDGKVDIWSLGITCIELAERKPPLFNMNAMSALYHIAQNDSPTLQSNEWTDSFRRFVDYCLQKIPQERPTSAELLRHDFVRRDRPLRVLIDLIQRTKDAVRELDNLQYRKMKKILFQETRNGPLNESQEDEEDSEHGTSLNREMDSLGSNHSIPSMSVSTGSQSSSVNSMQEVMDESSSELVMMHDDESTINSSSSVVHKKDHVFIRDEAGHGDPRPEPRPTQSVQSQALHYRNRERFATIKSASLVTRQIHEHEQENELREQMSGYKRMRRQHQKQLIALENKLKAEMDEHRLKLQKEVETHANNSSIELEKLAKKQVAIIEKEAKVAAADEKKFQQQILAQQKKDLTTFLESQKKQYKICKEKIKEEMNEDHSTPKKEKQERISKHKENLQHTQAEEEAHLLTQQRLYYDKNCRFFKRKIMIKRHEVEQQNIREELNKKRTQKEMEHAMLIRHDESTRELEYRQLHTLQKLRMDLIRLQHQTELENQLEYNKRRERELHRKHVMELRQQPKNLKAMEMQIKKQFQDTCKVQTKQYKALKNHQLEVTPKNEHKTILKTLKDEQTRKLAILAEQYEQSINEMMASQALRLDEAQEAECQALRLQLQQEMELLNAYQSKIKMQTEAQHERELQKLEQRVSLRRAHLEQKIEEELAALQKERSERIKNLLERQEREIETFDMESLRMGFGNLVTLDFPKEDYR
Summary of the method: as §1

[9] = read-out: % Enzyme Activity (relative to DMSO controls) AVG
[10] = read-out: % Enzyme Activity (relative to DMSO controls) Data 1
[11] = read-out: % Enzyme Activity (relative to DMSO controls) Data 2

`CC(C)(C)C(=O)N1N=CC[C@H]1c1ccccc1` [GSK′963] showed a remaining activity at 10 µM [1, 9] of 109%, a remaining activity at 10 µM [1, 10] of 108% and a remaining activity at 10 µM [1, 11] of 110%. It also gave a remaining activity at 10 µM [2, 9] of 105%, a remaining activity at 10 µM [2, 10] of 105% and a remaining activity at 10 µM [2, 11] of 106%. For the same molecule, the remaining activity at 10 µM [3, 9] was 103%, the remaining activity at 10 µM [3, 10] was 103% and the remaining activity at 10 µM [3, 11] was 103%. The remaining activity at 10 µM [4, 9] was 94.5%, the remaining activity at 10 µM [4, 10] was 90.7% and the remaining activity at 10 µM [4, 11] was 98.3%. It also gave a remaining activity at 10 µM [5, 9] of 104%, a remaining activity at 10 µM [5, 10] of 101% and a remaining activity at 10 µM [5, 11] of 106%. It also gave a remaining activity at 10 µM [6, 9] of 99.7%, a remaining activity at 10 µM [6, 10] of 99% and a remaining activity at 10 µM [6, 11] of 100%. The remaining activity at 10 µM [7, 9] was 97.7%, the remaining activity at 10 µM [7, 10] was 104% and the remaining activity at 10 µM [7, 11] was 91.2%. It also gave a remaining activity at 10 µM [8, 9] of 98.2%, a remaining activity at 10 µM [8, 10] of 99.2% and a remaining activity at 10 µM [8, 11] of 97.3%.
